14 molecules from ChEMBL document CHEMBL1201862, “PubChem BioAssay data set” (2004) can be followed below.

What all share (experiment): NCI-60 cell line screen, 48 h
The test system of experiment [1] is A498.
Experiment [2] relates to COLO 205.
Experiment [3] deals with DLD-1.
Experiment [4] concerns EKVX.
In experiment [5] the test system is HCT-15.
Experiment [6] concerns HT-29.
Experiment [7] has as its system KM12.
Experiment [8] relates to M19-MEL.
Experiment [9] concerns RPMI-8226.
The test system of experiment [10] is SF-295.
The subject of experiment [11] is SN12C.
In experiment [12] the test system is SNB-78.
Experiment [13] relates to UO-31.
In experiment [14] the test system is XF498.
Experiment [15] deals with DMS-114.
The test system of experiment [16] is HOP-18.
For experiment [17], the system named is DU-145.
The test system of experiment [18] is MDA-MB-231.
The test system of experiment [19] is NCI/ADR-RES.
In experiment [20] the test system is T47D.

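48-hour exposure; five concentrations; linearly interpolated endpoints. Abbreviation: GI50, concentration required for 50% inhibition of growth.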 Activity calls are given as the source filed them. No stated cut-off is given here; in the data, active = GI50 up to about 1.1 µM and inactive = higher.

For the molecule `Oc1cc(CN2CCOCCOCCOCCOCC2)c(O)cc1CN1CCOCCOCCOCCOCC1`, the GI50 was > 75.3 µM (inactive) in [1]; 21.2 µM (inactive) in experiment [2]; 22.1 µM (inactive) in experiment [3]; > 100 µM (inactive) in [4]; 34.9 µM in [5]; > 47.2 µM (inactive) in [6]. For the same molecule, the GI50 in experiment [7] was > 100 µM (inactive); in [8] it was 14.1 µM (inactive); in experiment [9] it was 26.2 µM (inactive); in experiment [10], > 100 µM (inactive); in experiment [11], > 10 µM (inactive); in experiment [12] it was > 57.1 µM (inactive). For the same molecule, the values for the GI50 in experiment [13] and in experiment [14] were > 71.3 µM (inactive) and 22 µM (inactive), respectively.

Regarding `Cc1ccc(C)c(NC(=O)CC2C(=O)Nc3ccccc3S2(=O)=O)c1` (centres undefined), the GI50 in experiment [1] was 30.2 µM (inactive); in [3], > 100 µM (inactive); in experiment [15], 45.4 µM (inactive); in experiment [4] it was 31.2 µM (inactive); in [5], 87.9 µM; in experiment [6], > 100 µM (inactive). Further, the GI50 was 63 µM (inactive) in [8]; 36.6 µM (inactive) in experiment [9]; > 100 µM (inactive) in [10]; > 100 µM (inactive) in [11]; 68.4 µM (inactive) in experiment [12]; 49.7 µM (inactive) in experiment [13]. Moreover, the GI50 in experiment [14] was 27.8 µM (inactive).

Consider `Cc1nc(-n2nc(-c3ccccc3)cc2-c2ccccc2)sc1C(=O)CC(=O)C(=O)Nc1ccc(O)cc1`, for which the GI50 in experiment [1] was > 100 µM (inactive); in experiment [2] it was > 100 µM (inactive); in [3] it was > 100 µM (inactive); in experiment [15], > 100 µM (inactive); in experiment [4], > 100 µM (inactive); in [5], over 100 µM. In addition, the GI50 in experiment [16], in experiment [6], in [7], in experiment [9], in experiment [10] and in experiment [11] was > 100 µM (inactive) each time. Moreover, the GI50 in experiment [12] and in experiment [13] was > 100 µM (inactive) throughout.

For the molecule `Cc1cc2c3ccccc3n3c2c2c1OC1(C)CCC(C2C1)C3(C)C` (centres undefined), the GI50 was > 25 µM (inactive) in experiment [2]; > 25 µM (inactive) in experiment [3]; > 25 µM (inactive) in [15]; over 25 µM in experiment [5]; > 25 µM (inactive) in experiment [6]; > 25 µM (inactive) in experiment [7]. The GI50 in [8], in experiment [9], in [11], in [12], in experiment [13] and in [14] was > 25 µM (inactive) each time.

For the molecule `O=C(O)c1cc(=O)c2[nH]c3ccccc3c2s1`, the GI50 is > 100 µM (inactive) in experiment [2]; > 100 µM (inactive) in experiment [3]; > 100 µM (inactive) in experiment [15]; > 100 µM (inactive) in [4]; over 100 µM in [5]; > 100 µM (inactive) in experiment [7]. Further, the GI50 in experiment [8], in experiment [9], in experiment [10], in experiment [11], in experiment [12] and in experiment [13] was > 100 µM (inactive) throughout. Also, the GI50 in [14] is > 100 µM (inactive).

As to `CC1(C)CC(=O)C=C(NC(=O)c2ccccc2)C1`, the GI50 in [1] is > 100 µM (inactive); in experiment [2], > 100 µM (inactive); in [3], > 100 µM (inactive); in experiment [15], > 100 µM (inactive); in experiment [4] it was > 100 µM (inactive); in [5] it was over 100 µM. In addition, the GI50 in experiment [6], in [7], in [8], in experiment [9], in experiment [10] and in [11] was > 100 µM (inactive) throughout. Besides, the GI50 in [12], in experiment [13] and in [14] was > 100 µM (inactive) throughout.

For `C(=C1/CCCCC([n+]2ccccc2)=N1)/c1ccccc1`, the GI50 in experiment [2] was > 100 µM (inactive); in experiment [3], > 100 µM (inactive); in experiment [15], > 100 µM (inactive); in experiment [4], > 100 µM (inactive); in experiment [5], over 100 µM; in experiment [16], > 100 µM (inactive). Also, the GI50 in experiment [6], in experiment [8], in [9], in [10], in experiment [11] and in [12] was > 100 µM (inactive) each time. For the same molecule, the GI50 in experiment [13] is > 100 µM (inactive).

For the molecule `CC(C)(C=O)CC(C#N)/C(=N\NC(N)=O)C(=O)Nc1ccccc1C(N)=O` (centres undefined), the GI50 in [1] is > 100 µM (inactive); in experiment [4], > 100 µM (inactive); in [5], over 100 µM; in [6] it was > 100 µM (inactive); in experiment [7] it was > 100 µM (inactive); in experiment [8], > 100 µM (inactive). Also, the GI50 in experiment [9], in [10], in experiment [11], in [12], in experiment [13] and in experiment [14] was > 100 µM (inactive) each time.

Take `COc1cc2ccnc3c2c(c1OC)-c1coc(SC)c1-3`: the GI50 was 19.5 µM (inactive) in experiment [1]; > 100 µM (inactive) in experiment [2]; 95.1 µM (inactive) in experiment [3]; over 100 µM in experiment [5]; 38.6 µM (inactive) in [16]; 94.8 µM (inactive) in [6]. The GI50 in experiment [7] is > 100 µM (inactive); in experiment [8], > 100 µM (inactive); in [9], 13 µM (inactive); in experiment [10], 13.4 µM (inactive); in experiment [11], > 100 µM (inactive); in [12], > 100 µM (inactive). Further, the GI50 in experiment [13] is 26.4 µM (inactive).

In the case of `Nc1cc(=O)n(-c2ccccc2)c(=S)n1-c1ccccc1`, the GI50 in [1] was > 100 µM (inactive); in experiment [2] it was > 100 µM (inactive); in [3], > 100 µM (inactive); in experiment [15] it was > 100 µM (inactive); in experiment [4], > 100 µM (inactive); in experiment [5] it was over 100 µM. For the same molecule, the GI50 in experiment [6], in experiment [7], in experiment [8], in experiment [9], in [10] and in experiment [11] was > 100 µM (inactive) in each case. Also, the GI50 in experiment [12], in [13] and in experiment [14] was > 100 µM (inactive) each time.

As for `CCOC(=O)C1CC/C(=C(/C#N)C(=O)OC)N1` (centres undefined), the GI50 was > 100 µM (inactive) in [1]; > 100 µM (inactive) in experiment [2]; > 100 µM (inactive) in [3]; > 100 µM (inactive) in [15]; > 100 µM (inactive) in experiment [4]; over 100 µM in experiment [5]. Also, the GI50 in [7], in [8], in experiment [9], in [10], in experiment [11] and in experiment [12] was > 100 µM (inactive) in each case. For the same molecule, the GI50 in [13] and in experiment [14] was > 100 µM (inactive) throughout.

In the case of `COc1ccc2nccc(C3=CCC4CCN(C(=O)c5ccccc5)C3C4)c2c1` (centres undefined), the GI50 in [1] is > 100 µM (inactive); in [2] it was > 100 µM (inactive); in experiment [3], > 100 µM (inactive); in [15] it was > 100 µM (inactive); in experiment [4] it was > 100 µM (inactive); in experiment [5], over 100 µM. The GI50 in experiment [6] is > 100 µM (inactive); in experiment [7], > 100 µM (inactive); in experiment [8], > 100 µM (inactive); in experiment [9], 46.1 µM (inactive); in [10], > 100 µM (inactive); in experiment [11], > 100 µM (inactive). Further, the GI50 in [12] was > 100 µM (inactive); in [13] it was 40.7 µM (inactive); in [14], 92 µM (inactive).

In the case of `COc1ccc2c(=O)cc(-c3ccc(OC)c(OC)c3OC)oc2c1`, the GI50 in [2] was > 71.8 µM (inactive); in experiment [3], 53.3 µM (inactive); in [15], 76.2 µM (inactive); in experiment [17] it was > 100 µM (inactive); in experiment [4] it was > 64.3 µM (inactive); in [5], over 100 µM. The GI50 in experiment [6] was 98.9 µM (inactive); in experiment [7], > 43.7 µM (inactive); in experiment [8], 67.9 µM (inactive); in [18], 38.7 µM (inactive); in experiment [19], 28.4 µM (inactive); in experiment [9], 16.9 µM (inactive). Further, the GI50 in experiment [10] was 48.1 µM (inactive); in [11] it was 61.4 µM (inactive); in [20] it was > 100 µM (inactive); in [13] it was > 100 µM (inactive); in experiment [14], 46.7 µM (inactive).

On to `Nc1nc(OCc2ccccc2)c2nc[nH]c2n1` [6-O-BENZYLGUANINE], for which the GI50 in experiment [1] is 57.8 µM (inactive); in experiment [2], 124 µM (inactive); in experiment [3] it was 64.6 µM (inactive); in [15] it was 64 µM (inactive); in experiment [4], 99.5 µM (inactive); in [5] it was 57.1 µM. Also, the GI50 is 87.3 µM (inactive) in experiment [16]; 87.3 µM (inactive) in experiment [6]; 98.6 µM (inactive) in experiment [7]; 198 µM (inactive) in experiment [8]; 121 µM (inactive) in experiment [10]; 90.4 µM (inactive) in [11]. The figures for the GI50 in [12] and in experiment [13] were 79.8 µM (inactive) and 25.9 µM (inactive), respectively.
